These molecules were tested against T1, CYP4A (Homo sapiens, UniProt Q02928) (assay: CYP4A enzyme assay (Luciferin-ME luminescence, CYP4A bactosome)). Settings: compound concentration 5 μM; 25%-50%; read-out: % Inhibition 25%-50%.
T1 construct: host or cells: bactosome, i.e. bacterial membrane preparation (own knowledge of the term)
T1 sequence (Q02928 5-519): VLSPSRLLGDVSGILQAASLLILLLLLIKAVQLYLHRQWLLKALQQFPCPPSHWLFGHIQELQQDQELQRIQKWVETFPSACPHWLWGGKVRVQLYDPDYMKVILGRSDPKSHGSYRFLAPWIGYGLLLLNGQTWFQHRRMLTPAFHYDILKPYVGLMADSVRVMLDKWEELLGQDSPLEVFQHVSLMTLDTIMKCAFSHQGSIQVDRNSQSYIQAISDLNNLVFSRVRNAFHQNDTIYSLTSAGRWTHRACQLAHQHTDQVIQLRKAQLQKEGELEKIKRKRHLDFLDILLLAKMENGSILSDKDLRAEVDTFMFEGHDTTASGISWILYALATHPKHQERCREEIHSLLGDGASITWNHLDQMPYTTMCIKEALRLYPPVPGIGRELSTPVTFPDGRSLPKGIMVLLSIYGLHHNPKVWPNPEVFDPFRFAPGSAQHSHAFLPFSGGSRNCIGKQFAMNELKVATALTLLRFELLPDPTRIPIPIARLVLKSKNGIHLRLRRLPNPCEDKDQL
Format: biochemical
How it was run: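 CYP4A bactosome preincubated 15 min at room temperature with compound (5 μM) in 100 mM KPO4, 0.1% BSA, 1 mM DTT. Luciferin-ME (5 mM) plus NADPH regeneration system added, 30 min at room temperature, then detection reagent for 15 min. Inhibition derived from luminescence versus controls.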

`Cc1cc(N2CCN(C(=O)C3CCCN(S(=O)(=O)c4ccc(N)cc4)C3)CC2)c2ccccc2n1` (centres unmarked) [Formula 96, (1-(4-aminophenylsulfonyl)piperidin-3-yl) (4-(2-methylquinolin-4-yl)piperazin-1-yl) methanone] and `Cc1cc(N2CCN(C(=O)C3CCCN(S(=O)(=O)c4ccc(C(=O)N(C)C)cc4)C3)CC2)c2ccccc2n1` (centres unmarked) [Formula 101, N,N-dimethyl-4-(3-(1-(2-methylquinolin-4-yl)piperazine-4-carbonyl)piperidin-1-ylsulfonyl)benzamide] fall in the same range of inhibition at 5 µM: 25 to 50% for the first, 25 to 50% for the second.

`O=C(O)c1ccc(S(=O)(=O)N2CCCC(C(=O)N3CCN(c4ccnc5cc(Cl)ccc45)CC3)C2)cc1` (centres unmarked) [Formula 98, 4-((3-(1-(7-chloroquinolin-4-yl)piperazine-1-carbonyl)piperidin-1-yl)sulfonyl)benzoic acid] showed an inhibition at 5 µM of 25 to 50%.

Same assay, conditions: compound concentration 5 μM; 75% or more; read-out: % Inhibition 75% or more

`O=C(C1CCCN(S(=O)(=O)c2cccc(O)c2)C1)N1CCN(c2ccnc3cc(F)ccc23)CC1` (centres unmarked) [Formula 94, (4-(7-fluoroquinolin-4-yl)piperazin-1-yl) (1-(3-hydroxyphenylsulfonyl)piperidin-3-yl) methanone] and `O=C(C1CCCN(S(=O)(=O)c2cccc(O)c2)C1)N1CCN(c2ccnc3ccccc23)CC1` (centres unmarked) [Formula 95, (1-(3-hydroxyphenylsulfonyl)piperidin-3-yl) (4-(quinolin-4-yl)piperazin-1-yl) methanone] cannot be ordered by inhibition at 5 µM: ≥ 75% for the first, ≥ 75% for the second.

`Cc1cc(N2CCN(C(=O)C3CCCN(S(=O)(=O)c4ccc(-c5ccncc5)cc4)C3)CC2)c2ccccc2n1` (centres unmarked) [Formula 102, (4-(2-methylquinolin-4-yl)piperazin-1-yl) (1-((4-(pyridin-4-yl)phenyl)sulfonyl)piperidin-3-yl)methanone] and `Cc1cc(N2CCN(C(=O)C3CCCN(S(=O)(=O)c4ccc(-c5cccnc5)cc4)C3)CC2)c2ccccc2n1` (centres unmarked) [Formula 105, (4-(2-methylquinolin-4-yl)piperazin-1-yl) (1-((4-(pyridin-3-yl)phenyl)sulfonyl)piperidin-3-yl) methanone] are the same in inhibition at 5 µM: 0% for the first, 0% for the second.

Going from `Cc1cc(N2CCN(C(=O)C3CCCN(S(=O)(=O)c4ccc(-c5cnc(C)nc5)cc4)C3)CC2)c2ccccc2n1` (centres unmarked) [Formula 104, (1-((4-(2-methylpyrimidin-5-yl)phenyl)sulfonyl)piperidin-3-yl) (4-(2-methylquinolin-4-yl)piperazin-1-yl) methanone] to `Cc1ncc(-c2ccc(S(=O)(=O)N3CCCC(C(=O)N4CCN(c5ccnc6ccccc56)CC4)C3)cc2)cn1` (centres unmarked) [Formula 115, (1-(4-(2-methylpyrimidin-5-yl)phenylsulfonyl)piperidin-3-yl) (4-(quinolin-4-yl)piperazin-1-yl) methanone], the inhibition at 5 µM rises from 0% to ≥ 75%.

Compared with `O=C(C1CCCN(S(=O)(=O)c2ccc(-c3ccncc3)cc2)C1)N1CCN(c2ccnc3cc(F)ccc23)CC1` (centres unmarked) [Formula 106, (4-(7-fluoroquinolin-4-yl)piperazin-1-yl) (1-(4-(pyridin-4-yl)phenylsulfonyl)piperidin-3-yl) methanone], `O=C([C@@H]1CCCN(S(=O)(=O)c2ccc(-c3ccncc3)cc2)C1)N1CCN(c2ccnc3cc(F)ccc23)CC1` [Formula 107, (R)-(4-(7-fluoroquinolin-4-yl)piperazin-1-yl) (1-(4-(pyridin-4-yl)phenylsulfonyl)piperidin-3-yl) methanone] is higher in inhibition at 5 µM: 0% for the first, ≥ 75% for the second.

`O=C(C1CCCN(S(=O)(=O)c2ccc(-c3cccnc3)cc2)C1)N1CCN(c2ccnc3cc(F)ccc23)CC1` (centres unmarked) [Formula 108, (4-(7-fluoroquinolin-4-yl)piperazin-1-yl) (1-(4-(pyridin-3-yl)phenylsulfonyl)piperidin-3-yl) methanone] and `O=C(C1CCCN(S(=O)(=O)c2cccc(-c3cccnc3)c2)C1)N1CCN(c2ccnc3cc(F)ccc23)CC1` (centres unmarked) [Formula 110, (4-(7-fluoroquinolin-4-yl)piperazin-1-yl) (1-(3-(pyridin-3-yl)phenylsulfonyl)piperidin-3-yl) methanone] cannot be ordered by inhibition at 5 µM: ≥ 75% for the first, ≥ 75% for the second.

`O=C(C1CCCN(S(=O)(=O)c2cccc(-c3ccncc3)c2)C1)N1CCN(c2ccnc3cc(F)ccc23)CC1` (centres unmarked) [Formula 109, (4-(7-fluoroquinolin-4-yl)piperazin-1-yl) (1-(3-(pyridin-4-yl)phenylsulfonyl)piperidin-3-yl) methanone] and `O=C(C1CCCN(S(=O)(=O)c2cccc(-c3cncnc3)c2)C1)N1CCN(c2ccnc3cc(F)ccc23)CC1` (centres unmarked) [Formula 112, (4-(7-fluoroquinolin-4-yl)piperazin-1-yl) (1-(3-(pyrimidin-5-yl)phenylsulfonyl)piperidin-3-yl) methanone] cannot be ordered by inhibition at 5 µM: ≥ 75% for the first, ≥ 75% for the second.

`O=C(C1CCCN(S(=O)(=O)c2ccc(-c3cncnc3)cc2)C1)N1CCN(c2ccnc3cc(F)ccc23)CC1` (centres unmarked) [Formula 111, (4-(7-fluoroquinolin-4-yl)piperazin-1-yl) (1-(4-(pyrimidin-5-yl)phenylsulfonyl)piperidin-3-yl) methanone] and `O=C(C1CCCN(S(=O)(=O)c2ccc(-c3cccnc3)cc2)C1)N1CCN(c2ccnc3ccccc23)CC1` (centres unmarked) [Formula 114, (1-(4-(pyridin-3-yl)phenylsulfonyl)piperidin-3-yl) (4-(quinolin-4-yl)piperazin-1-yl) methanone] cannot be ordered by inhibition at 5 µM: ≥ 75% for the first, ≥ 75% for the second.

`O=C(C1CCCN(S(=O)(=O)c2ccc(-c3ccncc3)cc2)C1)N1CCN(c2ccnc3ccccc23)CC1` (centres unmarked) [Formula 113, (1-(4-(pyridin-4-yl)phenylsulfonyl)piperidin-3-yl) (4-(quinolin-4-yl)piperazin-1-yl) methanone] and `O=C(C1CCCN(S(=O)(=O)c2ccc([N+](=O)[O-])cc2)C1)N1CCN(c2ccnc3cc(Cl)ccc23)CC1` (centres unmarked) [Formula 117, (4-(7-chloroquinolin-4-yl)piperazin-1-yl) (1-(4-nitrophenylsulfonyl)piperidin-3-yl) methanone] cannot be ordered by inhibition at 5 µM: ≥ 75% for the first, ≥ 75% for the second.

`CC(=O)Nc1ccc(S(=O)(=O)N2CCCC(C(=O)N3CCN(c4ccnc5cc(Cl)ccc45)CC3)C2)cc1` (centres unmarked) [Formula 116, N-(4-(3-(4-(7-chloroquinolin-4-yl)piperazine-1-carbonyl)piperidin-1-ylsulfonyl)phenyl) acetamide] and `CCCCc1ccc(N=CNO)c(C)c1` [HET-0016, N-hydroxy-N′-(4-butyl-2-methylphenyl)-formamidine, reference compound] cannot be ordered by inhibition at 5 µM: ≥ 75% for the first, ≥ 75% for the second.

Same assay, conditions: compound concentration 5 μM; '50%-75%'; read-out: % Inhibition 50%-75%

`COc1ccc2c(N3CCN(C(=O)C4CCCN(S(=O)(=O)c5ccc(N(C)C)cc5)C4)CC3)ccnc2c1` (centres unmarked) [Formula 90, (1-(4-(dimethylamino)phenylsulfonyl)piperidin-3-yl) (4-(7-methoxyquinolin-4-yl)piperazin-1-yl) methanone] and `COc1ccc2c(N3CCN(C(=O)C4CCCN(S(=O)(=O)c5ccc(O)cc5)C4)CC3)ccnc2c1` (centres unmarked) [Formula 91, (1-(4-hydroxyphenylsulfonyl)piperidin-3-yl) (4-(7-methoxyquinolin-4-yl)piperazin-1-yl)methanone] fall in the same range of inhibition at 5 µM: 50 to 75% for the first, 50 to 75% for the second.

`O=C(C1CCCN(S(=O)(=O)c2cccc(O)c2)C1)N1CCN(c2ccnc3cc(Cl)ccc23)CC1` (centres unmarked) [Formula 92, (4-(7-chloroquinolin-4-yl)piperazin-1-yl) (1-(3-hydroxyphenylsulfonyl)piperidin-3-yl) methanone] and `CN(C)C(=O)c1ccc(S(=O)(=O)N2CCCC(C(=O)N3CCN(c4ccnc5cc(Cl)ccc45)CC3)C2)cc1` (centres unmarked) [Formula 99, 4-(3-(1-(7-chloroquinolin-4-yl)piperazine-4-carbonyl)piperidin-1-ylsulfonyl)-N,N-dimethylbenzamide] fall in the same range of inhibition at 5 µM: 50 to 75% for the first, 50 to 75% for the second.

`Cc1cc(N2CCN(C(=O)C3CCCN(S(=O)(=O)c4cccc(O)c4)C3)CC2)c2ccccc2n1` (centres unmarked) [Formula 93, (1-(3-hydroxyphenylsulfonyl)piperidin-3-yl) (4-(2-methylquinolin-4-yl)piperazin-1-yl) methanone] and `Cc1cc(N2CCN(C(=O)C3CCCN(S(=O)(=O)c4ccc(-c5cncnc5)cc4)C3)CC2)c2ccccc2n1` (centres unmarked) [Formula 103, (4-(2-methylquinolin-4-yl)piperazin-1-yl) (1-((4-(pyrimidin-5-yl)phenyl)sulfonyl)piperidin-3-yl) methanone] fall in the same range of inhibition at 5 µM: 50 to 75% for the first, 50 to 75% for the second.

Work on `Nc1ccc(S(=O)(=O)N2CCCC(C(=O)N3CCN(c4ccnc5ccccc45)CC3)C2)cc1` (centres unmarked) [Formula 97, (1-(4-aminophenylsulfonyl)piperidin-3-yl) (4-(quinolin-4-yl)piperazin-1-yl) methanone] yielded an inhibition at 5 µM of 0%.

Same assay, conditions: compound concentration 5 μM; mark in column '25% or less'; read-out: % Inhibition 25% or less

In the case of `Cc1cc(N2CCN(C(=O)C3CCCN(S(=O)(=O)c4ccc(C(=O)O)cc4)C3)CC2)c2ccccc2n1` (centres unmarked) [Formula 100, 4-(3-(1-(2-methylquinolin-4-yl)piperazine-4-carbonyl)piperidin-1-ylsulfonyl)benzoic acid], the inhibition at 5 µM is reported as ≤ 25%.

From US12479821B2 (MBD CO., LTD., priority 2019, dated 2025)
